Assay results as given in ChEMBL document CHEMBL1154195, “Synthesis and binding affinity of potential atypical antipsychotics with the tetrahydroquinazolinone motif” (Bioorg Med Chem Lett, 2009).

What was measured:
[1] = species: Homo sapiens; test: Ratio of pKi for human cloned 5HT2A receptor to pKi for human cloned dopamine D2 receptor
[2] = target: 5-hydroxytryptamine receptor 2A (Homo sapiens, UniProt P28223); test: Displacement of [3H]ketanserin from human cloned 5HT2A receptor
[3] = target: D(2) dopamine receptor (Homo sapiens) (UniProt P14416); test: Displacement of [3H]spiperone from human cloned dopamine D2 receptor at 10 uM
[4] = target: D(3) dopamine receptor (Homo sapiens, UniProt P35462)
Description: Displacement of [3H]spiperone from human dopamine D3 receptor

[5] = target: T1, 5-hydroxytryptamine receptor 2C (Homo sapiens, UniProt P28335); test: Displacement of [3H]mesulergine from human 5HT2C receptor
T1 sequence (P28335 whole entry): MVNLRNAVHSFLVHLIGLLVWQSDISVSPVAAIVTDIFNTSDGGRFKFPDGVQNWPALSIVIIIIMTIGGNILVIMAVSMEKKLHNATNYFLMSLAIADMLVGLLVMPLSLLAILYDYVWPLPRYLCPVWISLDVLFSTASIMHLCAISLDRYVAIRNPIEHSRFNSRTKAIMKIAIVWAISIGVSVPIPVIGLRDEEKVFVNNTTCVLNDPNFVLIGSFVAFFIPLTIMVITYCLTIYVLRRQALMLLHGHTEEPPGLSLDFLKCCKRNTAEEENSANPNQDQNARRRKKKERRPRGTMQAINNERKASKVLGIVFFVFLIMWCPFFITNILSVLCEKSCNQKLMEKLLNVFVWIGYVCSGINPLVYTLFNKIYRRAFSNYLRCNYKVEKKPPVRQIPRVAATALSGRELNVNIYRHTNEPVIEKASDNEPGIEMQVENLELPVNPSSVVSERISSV

[6] = target: D(1A) dopamine receptor (Homo sapiens, UniProt P21728)
Sequence of D(1A) dopamine receptor (P21728 whole entry): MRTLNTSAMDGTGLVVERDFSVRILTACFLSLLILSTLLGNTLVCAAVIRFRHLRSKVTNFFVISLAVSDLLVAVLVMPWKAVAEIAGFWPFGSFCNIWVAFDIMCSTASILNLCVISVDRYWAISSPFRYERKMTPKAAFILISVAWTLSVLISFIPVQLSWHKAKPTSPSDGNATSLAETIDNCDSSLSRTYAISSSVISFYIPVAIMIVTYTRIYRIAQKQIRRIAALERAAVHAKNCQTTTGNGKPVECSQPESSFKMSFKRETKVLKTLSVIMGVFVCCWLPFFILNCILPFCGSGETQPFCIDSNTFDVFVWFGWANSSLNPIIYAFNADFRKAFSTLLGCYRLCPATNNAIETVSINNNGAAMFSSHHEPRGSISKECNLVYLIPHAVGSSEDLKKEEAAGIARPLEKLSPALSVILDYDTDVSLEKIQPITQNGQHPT
Description: Displacement of [3H]SCH23390 from human dopamine D1 receptor

Sequence of D(3) dopamine receptor (P35462 whole entry): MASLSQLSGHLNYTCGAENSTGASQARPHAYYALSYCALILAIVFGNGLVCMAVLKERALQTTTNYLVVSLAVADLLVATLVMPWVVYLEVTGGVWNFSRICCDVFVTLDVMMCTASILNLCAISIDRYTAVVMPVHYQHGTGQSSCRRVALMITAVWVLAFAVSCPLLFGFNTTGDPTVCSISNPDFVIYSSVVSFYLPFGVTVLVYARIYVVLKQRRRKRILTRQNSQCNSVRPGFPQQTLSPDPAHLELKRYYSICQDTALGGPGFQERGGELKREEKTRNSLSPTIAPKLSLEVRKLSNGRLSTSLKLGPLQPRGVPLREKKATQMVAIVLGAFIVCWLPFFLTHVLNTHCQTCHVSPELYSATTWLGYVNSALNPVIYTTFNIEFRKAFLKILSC
Sequence of 5-hydroxytryptamine receptor 2A (P28223 whole entry): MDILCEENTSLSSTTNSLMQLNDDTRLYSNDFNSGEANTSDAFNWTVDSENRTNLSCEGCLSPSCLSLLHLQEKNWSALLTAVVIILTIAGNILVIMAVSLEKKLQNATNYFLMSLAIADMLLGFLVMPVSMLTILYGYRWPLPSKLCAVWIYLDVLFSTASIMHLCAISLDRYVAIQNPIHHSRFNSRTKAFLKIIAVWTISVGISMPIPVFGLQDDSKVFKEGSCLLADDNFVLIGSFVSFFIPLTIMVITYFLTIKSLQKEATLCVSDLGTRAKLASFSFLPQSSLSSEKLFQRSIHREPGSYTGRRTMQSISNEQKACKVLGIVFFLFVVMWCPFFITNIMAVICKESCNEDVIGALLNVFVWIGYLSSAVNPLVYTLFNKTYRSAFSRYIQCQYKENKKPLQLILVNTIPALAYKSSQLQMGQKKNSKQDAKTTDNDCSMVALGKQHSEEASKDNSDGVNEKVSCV
Sequence of D(2) dopamine receptor (Homo sapiens) (P14416 whole entry): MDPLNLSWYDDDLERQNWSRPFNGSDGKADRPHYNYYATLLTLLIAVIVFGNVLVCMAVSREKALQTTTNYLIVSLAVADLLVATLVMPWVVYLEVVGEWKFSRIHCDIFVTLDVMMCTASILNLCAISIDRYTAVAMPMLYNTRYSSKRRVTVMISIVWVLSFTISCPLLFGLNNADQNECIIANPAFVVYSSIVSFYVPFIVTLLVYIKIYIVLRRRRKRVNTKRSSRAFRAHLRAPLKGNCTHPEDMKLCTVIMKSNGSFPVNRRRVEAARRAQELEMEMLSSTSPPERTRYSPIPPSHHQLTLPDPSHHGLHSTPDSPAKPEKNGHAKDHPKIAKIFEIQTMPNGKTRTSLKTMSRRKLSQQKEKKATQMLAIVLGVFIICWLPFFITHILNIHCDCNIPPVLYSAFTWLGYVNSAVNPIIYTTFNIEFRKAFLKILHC

SMILES | Ratio pKi [1] | Ki [2] | inhibition [3] | Ki [4] | Ki [5] | Ki [6]
O=C1CC(CN2CCC(c3noc4cc(F)ccc34)CC2)Cc2nc(-c3ccccc3)ncc21 (stereo not drawn) | 0.92 | 126 nM | – | – | – | –
CSc1ncc2c(n1)CC(CN1CCC(C(=O)c3ccc(F)cc3)CC1)CC2=O (stereo not drawn) | – | 102 nM | < 60% | – | – | –
O=C1CC(CN2CCC(c3noc4cc(F)ccc34)CC2)Cc2ncncc21 (stereo not drawn) | 1.12 | 23.4 nM | – | 282 nM | 501 nM | 135 nM
O=C1CC(CN2CCC(C(=O)c3ccc(F)cc3)CC2)Cc2ncncc21 (stereo not drawn) | 1.05 | 309 nM | – | – | – | –
O=C1CC(CN2CCC(C(=O)c3ccc(F)cc3)CC2)Cc2nc(-c3ccccc3)ncc21 (stereo not drawn) | – | 631 nM | < 60% | – | – | –

Now those with a lower Ki [2], led by results:

Ratio pKi [1] | Ki [2] | inhibition [3] | Ki [4] | Ki [5] | Ki [6] | SMILES
1.23 | 6.46 nM | – | – | – | – | CNc1ncc2c(n1)CC(CN1CCC(C(=O)c3ccc(F)cc3)CC1)CC2=O (stereo not drawn)
– | 4.57 nM | – | 44.7 nM | > 10000 nM | – | CSc1ncc2c(n1)CC(CN1CCC(c3noc4cc(F)ccc34)CC1)CC2=O (stereo not drawn)
1.18 | 2.4 nM | – | 200 nM | > 10000 nM | 42.7 nM | CNc1ncc2c(n1)CC(CN1CCC(c3noc4cc(F)ccc34)CC1)CC2=O (stereo not drawn)
